Series [1] has as its target T1, human IL-23R (Homo sapiens, UniProt Q5VWK5).
T1 sequence (Q5VWK5 24-353 limits assumed): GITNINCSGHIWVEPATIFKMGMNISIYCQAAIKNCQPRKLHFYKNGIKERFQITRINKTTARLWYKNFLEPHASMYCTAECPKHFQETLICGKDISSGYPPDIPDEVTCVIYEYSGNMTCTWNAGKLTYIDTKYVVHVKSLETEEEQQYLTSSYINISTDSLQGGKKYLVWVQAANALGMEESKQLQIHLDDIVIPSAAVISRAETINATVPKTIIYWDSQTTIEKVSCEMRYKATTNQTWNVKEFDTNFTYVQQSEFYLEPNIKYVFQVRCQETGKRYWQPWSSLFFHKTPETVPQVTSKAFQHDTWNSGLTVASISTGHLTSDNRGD
As to the kind of experiment: Inhibition of IL-23 binding to IL-23R as measured by ELISA (Table 8). The note with it: human IL23 coated 1 μg/ml; human IL-23R-Fc 0.1 μg/ml; 60 min; read-out: Human ELISA IL23/IL23R IC50. The protocol:
Antagonism of compounds for human interleukin-23 receptor inhibitors, was determined by an ELISA assay.
A 384-well plate was coated with 50 μl/well of human IL23 at a final concentration of 1 μg/ml and incubated overnight at 4° C. The wells were washed 3 times with 80 μl wash buffer and blocked with 80 μl blocking buffer for 60 minutes at room temperature and washed again. 20 μl of serially diluted test peptides was added to each well and subsequently 20 μl of recombinant human IL-23R-Fc chimera at final concentration of 0.1 μg/ml. The plate was incubated for 60 minutes at room temperature. After the wells were washed, bound IL23R-Fc was detected with goat anti-hu-IgG1-HRP antibody. Signals were visualized with QUANTABLU fluorogenic peroxidase substrate.

Series [2] is described as follows: Solubility of peptide compounds in buffer formulations (Table 5). It counts as physicochemical. As to conditions: target 1 mg/ml. A digest of the protocol:
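Peptide solids, dried from DMSO stock, were taken up at 1 mg/mL in 50 mM HCl pH 1.2, or 50 mM phosphate pH 6.5 or pH 7.4. After 2 h gentle agitation and filtration (0.45 μm), solubility was determined by UHPLC-UV peak area against a DMSO standard of known concentration.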

[3] abbreviates: Buffer pH 1.1 (head; method: 50 mM HCl pH 1.2), 2 h agitation, read-out: Solubility, Buffer pH 1.1.
The mark [4] stands for this setting: aqueous buffer, 50 mM phosphate buffer pH 6.5, 2 h agitation, read-out: Solubility, Buffer pH 6.5.
Where [5] appears, read: aqueous buffer, 50 mM phosphate buffer pH 7.4, 2 h agitation, read-out: Solubility, Buffer pH 7.4.

Each structure is given as a SMILES string. Converted amounts (≈) assume the structure as drawn. Read-outs that look alike come from different tables or passages of the source. Numbered stars: 1 amine (or outer) side, 2 acyl side, 3 side chain; on linkers, the order of the positions; unused ones are H or OH. Bridge positions count the residues as written; N and C are the ends. Square brackets hold non-standard residues; d marks the D form. Peptide text beside a SMILES is read from it. * marks the point of attachment. X2 = O=C(Cc1ccc(-c2ccc(CC(=O)[*:2])cc2)cc1)[*:1]; Trp(7-Me) = Cc1cccc2c(C[C@H](N)C(=O)O)c[nH]c12; 2Nal = N[C@@H](Cc1ccc2ccccc2c1)C(=O)O; Suberoyl = O=C(CCCCCCC(=O)[*:2])[*:1]; X1 = O=C(CCCCCCCCCCCCCN[*:1])[*:2]; 3Pal = N[C@@H](Cc1cccnc1)C(=O)O; Aun = NCCCCCCCCCCC(=O)O; Thp = NC1(C(=O)O)CCOCC1; Me2NCH2CH2 = CN(C)CC*; Aib = CC(C)(N)C(=O)O; Aoc = NCCCCCCCC(=O)O; Sar = CNCC(=O)O

As a reminder, the solubility is how much of the substance goes into solution per volume.

For `Cc1cccc2c(C[C@@H]3NC(=O)Cc4ccc(cc4)-c4ccc(cc4)CC(=O)NCCCC[C@@H](C(=O)N[C@@H](CC(N)=O)C(=O)N[C@@H](Cc4cccnc4)C(=O)N(C)CC(N)=O)NC(=O)C(C)(C)NC(=O)[C@H](Cc4ccc5ccccc5c4)NC(=O)[C@H](Cc4ccc(OCCN(C)C)cc4)NC(=O)C4(CCOCC4)NC(=O)[C@H](CCC(N)=O)NC3=O)c[nH]c12` [compound 15] ([Trp(7-Me)]Q[Thp]Y(Me2NCH2CH2)[2Nal][Aib]KN[3Pal][Sar]-NH2; linker N-7 via X2), the IC50 in series [1] was 0.63 nM. Besides, the solubility at 2 h in series [2] (setting [3]) was ≥ 990 µg/mL; in series [2] (setting [4]), ≥ 920 µg/mL; in series [2] (setting [5]), ≥ 920 µg/mL.

Turning to `Cc1cccc2c(C[C@@H]3NC(=O)CCCCCCCCCCNC(=O)CC[C@@H](C(=O)N[C@@H](CC(N)=O)C(=O)N[C@@H](Cc4cccnc4)C(=O)N(C)CC(N)=O)NC(=O)C(C)(C)NC(=O)[C@H](Cc4ccc5ccccc5c4)NC(=O)[C@H](Cc4ccc(OCCN(C)C)cc4)NC(=O)C4(CCOCC4)NC(=O)[C@H](CC(C)C)NC3=O)c[nH]c12` [compound 7] ([Aun][Trp(7-Me)]L[Thp]Y(Me2NCH2CH2)[2Nal][Aib]EN[3Pal][Sar]-NH2; lactam N-8), in series [1], the IC50 was 2.41 nM. In addition, the solubility at 2 h in series [2] (setting [3]) was 20 µg/mL (≈ 12.5 µM); in series [2] (setting [4]) it was < 10 µg/mL; in series [2] (setting [5]), < 10 µg/mL.

In the case of `Cc1cccc2c(C[C@@H]3NC(=O)CCCCCCCNC(=O)CC[C@@H](C(=O)N[C@@H](CC(N)=O)C(=O)N[C@@H](Cc4cccnc4)C(=O)N(C)CC(N)=O)NC(=O)C(C)(C)NC(=O)[C@H](Cc4ccc5ccccc5c4)NC(=O)[C@H](Cc4ccc(OCCN(C)C)cc4)NC(=O)C4(CCOCC4)NC(=O)[C@H](CC(C)C)NC3=O)c[nH]c12` [compound 9] ([Aoc][Trp(7-Me)]L[Thp]Y(Me2NCH2CH2)[2Nal][Aib]EN[3Pal][Sar]-NH2; lactam N-8), the IC50 in series [1] came out at 0.94 nM. Moreover, the values for the solubility at 2 h in series [2] (setting [3]), in series [2] (setting [4]) and in series [2] (setting [5]) were ≥ 1160 µg/mL, 260 µg/mL (≈ 167 µM) and 80 µg/mL (≈ 51.3 µM), respectively.

With `CC(=O)NCCCC[C@@H]1NC(=O)[C@H](Cc2c[nH]c3c(C)cccc23)NC(=O)[C@@H](NC(C)=O)CCCCN(C)CCCCN(C)CCCC[C@@H](C(=O)N[C@@H](CC(N)=O)C(=O)N[C@@H](Cc2cccnc2)C(=O)N(C)CC(N)=O)NC(=O)C(C)(C)NC(=O)[C@@H](Cc2ccc3ccccc3c2)NC(=O)[C@H](Cc2ccc(OCCN(C)C)cc2)NC(=O)C2(CCOCC2)NC1=O` [compound 13], the IC50 in series [1] came out at 0.41 nM. For the same compound, the solubility at 2 h in series [2] (setting [3]) was ≥ 1190 µg/mL; in series [2] (setting [4]) it was ≥ 1180 µg/mL; in series [2] (setting [5]), ≥ 1230 µg/mL.

For `Cc1cccc2c(C[C@@H]3NC(=O)CCCCCCCCCCCCCNC(=O)CC[C@@H](C(=O)N[C@@H](CC(N)=O)C(=O)N[C@@H](Cc4cccnc4)C(=O)N(C)CC(N)=O)NC(=O)C(C)(C)NC(=O)[C@H](Cc4ccc5ccccc5c4)NC(=O)[C@H](Cc4ccc(OCCN(C)C)cc4)NC(=O)C4(CCOCC4)NC(=O)[C@H](CCC(N)=O)NC3=O)c[nH]c12` [compound 1] ([X1][Trp(7-Me)]Q[Thp]Y(Me2NCH2CH2)[2Nal][Aib]EN[3Pal][Sar]-NH2; lactam N-8), in series [1], the IC50 was determined as 0.3 nM. The solubility at 2 h in series [2] (setting [3]) is ≥ 920 µg/mL; in series [2] (setting [4]), < 10 µg/mL; in series [2] (setting [5]), < 10 µg/mL.

As to `Cc1cccc2c(C[C@@H]3NC(=O)CCCCCCC(=O)NCCCC[C@@H](C(=O)N[C@@H](CC(N)=O)C(=O)N[C@@H](Cc4cccnc4)C(=O)N(C)CC(N)=O)NC(=O)C(C)(C)NC(=O)[C@H](Cc4ccc5ccccc5c4)NC(=O)[C@H](Cc4ccc(OCCN(C)C)cc4)NC(=O)C4(CCOCC4)NC(=O)[C@H](CCC(N)=O)NC3=O)c[nH]c12` [compound 12] ([Trp(7-Me)]Q[Thp]Y(Me2NCH2CH2)[2Nal][Aib]KN[3Pal][Sar]-NH2; linker N-7 via Suberoyl), the IC50 in series [1] came to 0.61 nM. Besides, the solubility at 2 h is ≥ 1050 µg/mL in series [2] (setting [3]), ≥ 1100 µg/mL in series [2] (setting [4]) and ≥ 1150 µg/mL in series [2] (setting [5]).

For the origin of these results see patent US20260297129A1, “PEPTIDES AS SELECTIVE IL-23 RECEPTOR INHIBITORS” (SANOFI, priority 2023, published 2026).
